Read-outs that look alike come from different tables or passages of the source.
Key:
clone 1.17 cells = experiment: Growth inhibition, CYTOSTAR 14C-thymidine uptake; type: cell-based; conditions: Homo sapiens, 48 h, read-out: ^14C-thymidine EC50
Procedure: Cells were seeded in a CYTOSTAR-T plate at about 7000 to 10000 cells per well in 100 μL of complete DMEM and incubated 4 hours at 37° C., 5% CO2. Next, 25 μL per well of HDAC inhibitor or DMSO (vehicle control) 5× solutions in complete DMEM was added to the wells along with 5 μL per well of ^14C-thymidine diluted 1:3 in H2O (1.65 μL of thymidine per well, 55 mCi/mmol; 225 μCi/mg; 50 μCi/mL (10 μM final concentration) and incubated at 37° C., 5% CO2. Incorporation of ^14C-thymidine was monitored after 24, 48, and 72 hours by reading the plate in a Packard Instruments TOP-COUNT (CYTOSTAR ^14C method).

[1] = tested on: HDAC activity (acetylated histone H3); experiment: Acetylation of core histones (inhibition of HDAC activity) in HeLa cells, acetylated histone H3 immunoblot; type: cell-based, human; conditions: read-out: AcH3 EC50
Procedure: Induction of endogenous p21 and acetylation of core histones (inhibition of HDAC activity) was as follows. Dose-response experiments were performed in HeLa cells with different classes of known HDAC inhibitors. […] An α-tubulin-specific antibody (Sigma, St. Louis, Mo.; catalog number: T9026) was used as an internal standard. Quantitative data were obtained by densitometric analysis of X-ray films and were normalized for the internal standard values.

CMV promoter [2] = experiment: Luc activity of co-transfected pCMV-Luc control plasmid in HeLa cells; type: cell-based, human; conditions: for Fold Ind. RLU: vs DMSO; for RLU norm mean / RLU/μg: Table 5; for RLU/μg: luciferase control plasmid not named
CMV promoter [3] = experiment: as above; type: cell-based, human; conditions: 400 nM, 12 hours
Procedure: (§1) The p21m-BLA reporter plasmid was tested in transient transfection experiments of HeLa cells to evaluate the responsiveness of the minimal p21 promoter and the Bla reporter system to known HDAC inhibitors. In the first two transfection experiments, HeLa cells were transfected with 1 or 2 μg of Bla reporter plasmid containing either p21 minimal promoter (p21m-BLA) or CMV promoter (CMV-BLA) and 0.1 μg of pCMV-Luc or pRSV-Luc control plasmids. Different DNA-FUGENE transfection reagent ratios were tested (FUGENE is available from Roche Applied Science, Indianapolis, Ind.). […] Data are summarized below in Tables 1 and 2.

HeLa cells = conditions: saturating amounts, after 48 hours; cited from earlier work
RSV promoter = experiment: Luc activity of co-transfected pRSV-Luc control plasmid in HeLa cells; type: cell-based, human; conditions: Table 2, 400 nM, 12 hours
Procedure: as §1

[4] = Table 3, 2 μg p21m-BLA + 0.1 μg pCMV-Luc, 6 hr treatment, TSA 300 nM, Apicidin 1 μM
[5] = Table 3, 2 μg p21m-BLA + 0.1 μg pCMV-Luc, 12 hr treatment, TSA 300 nM, Apicidin 1 μM
[6] = Table 3, 2 μg p21m-BLA + 0.1 μg pCMV-Luc, 24 hr treatment, TSA 300 nM, Apicidin 1 μM
[7] = Table 3, 2 μg pCMV-BLA + 0.1 μg pCMV-Luc, 6 hr treatment, TSA 300 nM, Apicidin 1 μM
[8] = Table 3, 2 μg pCMV-BLA + 0.1 μg pCMV-Luc, 12 hr treatment, TSA 300 nM, Apicidin 1 μM
[9] = Table 3, 2 μg pCMV-BLA + 0.1 μg pCMV-Luc, 24 hr treatment, TSA 300 nM, Apicidin 1 μM
[10] = Apicidin 1 μM, TSA 300 nM, P21m-SEAP 0 μg DNA
[11] = Apicidin 1 μM, TSA 300 nM, P21m-SEAP 0.1 μg DNA
[12] = Apicidin 1 μM, TSA 300 nM, P21m-SEAP 0.2 μg DNA
[13] = Apicidin 1 μM, TSA 300 nM, P21m-SEAP 0.5 μg DNA
[14] = Apicidin 1 μM, TSA 300 nM, P21m-SEAP 1 μg DNA
[15] = Apicidin 1 μM, TSA 300 nM, P21m-SEAP 2 μg DNA

Row | SMILES | RLU/mg (CMV promoter [2]; [4]) [RLU/mg] | RLU/mg (CMV promoter [2]; [5]) [RLU/mg] | RLU/mg (CMV promoter [2]; [6]) [RLU/mg] | RLU/mg (CMV promoter [2]; [7]) [RLU/mg] | RLU/mg (CMV promoter [2]; [8]) [RLU/mg] | RLU/mg (CMV promoter [2]; [9]) [RLU/mg] | RLU norm mean (CMV promoter [2]; [10]) | RLU/μg (CMV promoter [2]; [10]) | RLU norm mean (CMV promoter [2]; [11]) | RLU/μg (CMV promoter [2]; [11]) | RLU/μg (CMV promoter [2]; [12]) | RLU norm mean (CMV promoter [2]; [13]) | RLU/μg (CMV promoter [2]; [13]) | RLU norm mean (CMV promoter [2]; [14]) | RLU/μg (CMV promoter [2]; [14]) | RLU/μg (CMV promoter [2]; [15]) | other results
1 | CCC(=O)CCCCC[C@@H]1NC(=O)[C@H]2CCCCN2C(=O)[C@H]([C@@H](C)CC)NC(=O)[C@H](Cc2cn(OC)c3ccccc23)NC1=O [Apicidin] | 79723 | 183519 | 131733 | 10937 | 39603.5 | 18932.5 | 1.08 | 102,236.00 RLU/μg | 1.17 | 111,192.67 RLU/μg | 108,052.99 RLU/μg | 0.57 | 54,363.72 RLU/μg | 1.14 | 108,153.75 RLU/μg | 85,172.59 RLU/μg | EC50 (clone 1.17 cells): 0.41 µM; EC50 ([1]; Homo sapiens, HeLa, 13 h): 0.11 µM; Fold Ind. RLU (CMV promoter [2]; Table 3, 2 μg p21m-BLA + 0.1 μg pCMV-Luc, 6 hr, TSA 300 nM, Apicidin 1 μM): 3.6 fold; Fold Ind. RLU (CMV promoter [2]; Table 3, 2 μg p21m-BLA + 0.1 μg pCMV-Luc, 12 hr, TSA 300 nM, Apicidin 1 μM): 2.45 fold; Fold Ind. RLU (CMV promoter [2]; Table 3, 2 μg p21m-BLA + 0.1 μg pCMV-Luc, 24 hr, TSA 300 nM, Apicidin 1 μM): 2.9 fold; Fold Ind. RLU (CMV promoter [2]; Table 3, 2 μg pCMV-BLA + 0.1 μg pCMV-Luc, 6 hr, TSA 300 nM, Apicidin 1 μM): 2 fold; Fold Ind. RLU (CMV promoter [2]; Table 3, 2 μg pCMV-BLA + 0.1 μg pCMV-Luc, 12 hr, TSA 300 nM, Apicidin 1 μM): 3.6 fold; Fold Ind. RLU (CMV promoter [2]; Table 3, 2 μg pCMV-BLA + 0.1 μg pCMV-Luc, 24 hr, TSA 300 nM, Apicidin 1 μM): 5.3 fold; RLU norm mean (CMV promoter [2]; [12]): 1.14; RLU norm mean (CMV promoter [2]; [15]): 0.90
2 | CC(/C=C/C(=O)NO)=C\[C@@H](C)C(=O)c1ccc(N(C)C)cc1 [TSA, Trichostatin A] | 85379 | 248656.9 | 110180.6 | 12579.8 | 33592.3 | 22233.7 | 0.97 | 94,973.90 RLU/μg | 0.97 | 95,526.00 RLU/μg | 116,091.50 RLU/μg | 0.85 | 83,237.58 RLU/μg | 0.89 | 87,194.70 RLU/μg | 111,592.45 RLU/μg | RLU/mg (CMV promoter [3]; Table 1, 1 μg CMV-BLA + 3 μL F, control plasmid not given): 8986 RLU/mg; RLU/mg (CMV promoter [3]; Table 1, 1 μg p21m-BLA + 3 μL F, control plasmid pCMV-Luc or pRSV-Luc, not specified): 52035 RLU/mg; RLU/mg (CMV promoter [3]; Table 1, 1 μg p21m-BLA + 5 μL F, control plasmid not given): 29022.4 RLU/mg; RLU/mg (CMV promoter [3]; Table 2, 2 μg CMV-BLA + 6 μL F + CMV-luc): 13085.6 RLU/mg; RLU/mg (CMV promoter [3]; Table 2, 2 μg p21BLA + 6 μL F + CMV-luc): 105942 RLU/mg; remission from cell cycle arrest (HeLa cells): complete remission from cell cycle arrest; RLU/mg (RSV promoter; 1 μg CMV-BLA + 3 μL F + RSV-luc): 7964.46 RLU/mg; RLU/mg (RSV promoter; 1 μg p21m-BLA + 3 μL F + RSV-luc): 24437.8 RLU/mg; RLU/mg (RSV promoter; 2 μg CMV-BLA + 6 μL F + RSV-luc): 4972 RLU/mg; RLU/mg (RSV promoter; 2 μg p21m-BLA + 6 μL F + RSV-luc): 29989.4 RLU/mg; EC50 ([1]; HeLa cells, 13 hour treatment, immunoblot densitometry): 0.13 µM; RLU/mg (CMV promoter [2]; Table 1, 400 nM, 12 hours, 2 μg CMV-BLA + 6 μL F, control plasmid not given): 14934 RLU/mg; RLU/mg (CMV promoter [2]; Table 1, 400 nM, 12 hours, 2 μg p21m-BLA + 6 μL F, control plasmid not given): 50773.9 RLU/mg; RLU/mg (CMV promoter [2]; Table 1, 400 nM, 12 hours, 2 μg p21m-BLA + 10 μL F, control plasmid not given): 22499.2 RLU/mg; RLU/mg (CMV promoter [2]; Table 2, 400 nM, 12 hours, 1 μg CMV-BLA + 3 μL F + CMV-luc): 14928.8 RLU/mg; RLU/mg (CMV promoter [2]; Table 2, 400 nM, 12 hours, 1 μg p21m-BLA + 3 μL F + CMV-luc): 47709.8 RLU/mg
